# From patent US8471005B2 (Cephalon, Inc., priority 2008, dated 2013)
# Like-named read-outs stand apart in the source and are kept apart here.
# Columns and labels:
# ALK = target: T1, ALK (Homo sapiens, UniProt Q9UM73); assay: ALK Kinase Assay (ELISA/TRF, PLC-γ substrate); assay type: biochemical; details: read-out: ALK Potency
# T1 construct: host or cells: baculovirus expression system
# In short: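 Time-resolved fluorescence ELISA using Eu-N1 PT66 antibody to detect phosphorylated PLC-γ (coated at 10 μg/mL). Enzyme at 30 ng/ml ALK; 15 min incubation, 37° C.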
# JAK2 = target: T2, JAK2 (Homo sapiens, UniProt O60674); assay: Recombinant Human JAK2 Kinase Assay (TRF); assay type: biochemical; details: read-out: JAK2 Potency
# T2 construct: host or cells: baculovirus expression system
# T2 sequence (O60674 whole entry): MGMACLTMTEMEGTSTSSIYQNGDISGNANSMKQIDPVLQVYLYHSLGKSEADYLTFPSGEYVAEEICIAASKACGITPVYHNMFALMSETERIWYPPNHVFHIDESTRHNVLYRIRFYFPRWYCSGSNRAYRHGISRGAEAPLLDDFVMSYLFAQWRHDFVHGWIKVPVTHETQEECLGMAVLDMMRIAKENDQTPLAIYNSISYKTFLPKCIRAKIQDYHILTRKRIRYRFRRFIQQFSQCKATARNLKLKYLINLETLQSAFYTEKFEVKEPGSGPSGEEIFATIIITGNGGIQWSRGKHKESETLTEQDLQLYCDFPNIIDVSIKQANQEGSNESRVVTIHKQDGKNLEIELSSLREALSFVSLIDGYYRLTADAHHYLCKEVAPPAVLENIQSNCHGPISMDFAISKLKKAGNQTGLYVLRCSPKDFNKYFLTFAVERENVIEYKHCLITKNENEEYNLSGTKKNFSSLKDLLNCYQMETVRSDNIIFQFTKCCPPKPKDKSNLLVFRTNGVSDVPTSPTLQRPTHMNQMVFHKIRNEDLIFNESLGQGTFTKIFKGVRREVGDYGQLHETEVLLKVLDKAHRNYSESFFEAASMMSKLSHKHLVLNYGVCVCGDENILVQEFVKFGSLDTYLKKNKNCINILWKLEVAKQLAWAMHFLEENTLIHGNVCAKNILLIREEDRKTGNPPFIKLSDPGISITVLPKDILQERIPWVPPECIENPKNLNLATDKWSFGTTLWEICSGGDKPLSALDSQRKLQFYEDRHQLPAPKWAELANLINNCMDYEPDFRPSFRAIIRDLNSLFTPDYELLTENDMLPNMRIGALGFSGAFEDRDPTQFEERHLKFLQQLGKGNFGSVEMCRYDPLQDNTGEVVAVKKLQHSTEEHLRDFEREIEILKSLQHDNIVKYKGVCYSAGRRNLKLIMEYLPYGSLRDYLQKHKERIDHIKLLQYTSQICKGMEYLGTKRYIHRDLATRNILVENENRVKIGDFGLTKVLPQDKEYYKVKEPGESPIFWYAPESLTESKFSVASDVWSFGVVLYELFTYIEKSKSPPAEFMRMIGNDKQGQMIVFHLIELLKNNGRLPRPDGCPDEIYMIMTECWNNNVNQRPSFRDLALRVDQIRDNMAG
# In short: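 Baculovirus-expressed JAK2 (15 ng/ml) phosphorylated a biotinylated 15-mer peptide captured on Neutravidin-coated plates, in 20 mM HEPES pH 7.2 with 0.2 μM ATP, 1 mM MnCl2, 0.1% BSA and 2.5% DMSO. Reaction ran 20 min at room temperature; phosphopeptide was detected by time-resolved fluorescence with Eu-N1-labelled PY100 antibody.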
# [1] = ALK kinase inhibition, 1 μM ATP
# [2] = JAK2 kinase inhibition, 0.2 μM ATP
# T1 sequence (Q9UM73 19-1620): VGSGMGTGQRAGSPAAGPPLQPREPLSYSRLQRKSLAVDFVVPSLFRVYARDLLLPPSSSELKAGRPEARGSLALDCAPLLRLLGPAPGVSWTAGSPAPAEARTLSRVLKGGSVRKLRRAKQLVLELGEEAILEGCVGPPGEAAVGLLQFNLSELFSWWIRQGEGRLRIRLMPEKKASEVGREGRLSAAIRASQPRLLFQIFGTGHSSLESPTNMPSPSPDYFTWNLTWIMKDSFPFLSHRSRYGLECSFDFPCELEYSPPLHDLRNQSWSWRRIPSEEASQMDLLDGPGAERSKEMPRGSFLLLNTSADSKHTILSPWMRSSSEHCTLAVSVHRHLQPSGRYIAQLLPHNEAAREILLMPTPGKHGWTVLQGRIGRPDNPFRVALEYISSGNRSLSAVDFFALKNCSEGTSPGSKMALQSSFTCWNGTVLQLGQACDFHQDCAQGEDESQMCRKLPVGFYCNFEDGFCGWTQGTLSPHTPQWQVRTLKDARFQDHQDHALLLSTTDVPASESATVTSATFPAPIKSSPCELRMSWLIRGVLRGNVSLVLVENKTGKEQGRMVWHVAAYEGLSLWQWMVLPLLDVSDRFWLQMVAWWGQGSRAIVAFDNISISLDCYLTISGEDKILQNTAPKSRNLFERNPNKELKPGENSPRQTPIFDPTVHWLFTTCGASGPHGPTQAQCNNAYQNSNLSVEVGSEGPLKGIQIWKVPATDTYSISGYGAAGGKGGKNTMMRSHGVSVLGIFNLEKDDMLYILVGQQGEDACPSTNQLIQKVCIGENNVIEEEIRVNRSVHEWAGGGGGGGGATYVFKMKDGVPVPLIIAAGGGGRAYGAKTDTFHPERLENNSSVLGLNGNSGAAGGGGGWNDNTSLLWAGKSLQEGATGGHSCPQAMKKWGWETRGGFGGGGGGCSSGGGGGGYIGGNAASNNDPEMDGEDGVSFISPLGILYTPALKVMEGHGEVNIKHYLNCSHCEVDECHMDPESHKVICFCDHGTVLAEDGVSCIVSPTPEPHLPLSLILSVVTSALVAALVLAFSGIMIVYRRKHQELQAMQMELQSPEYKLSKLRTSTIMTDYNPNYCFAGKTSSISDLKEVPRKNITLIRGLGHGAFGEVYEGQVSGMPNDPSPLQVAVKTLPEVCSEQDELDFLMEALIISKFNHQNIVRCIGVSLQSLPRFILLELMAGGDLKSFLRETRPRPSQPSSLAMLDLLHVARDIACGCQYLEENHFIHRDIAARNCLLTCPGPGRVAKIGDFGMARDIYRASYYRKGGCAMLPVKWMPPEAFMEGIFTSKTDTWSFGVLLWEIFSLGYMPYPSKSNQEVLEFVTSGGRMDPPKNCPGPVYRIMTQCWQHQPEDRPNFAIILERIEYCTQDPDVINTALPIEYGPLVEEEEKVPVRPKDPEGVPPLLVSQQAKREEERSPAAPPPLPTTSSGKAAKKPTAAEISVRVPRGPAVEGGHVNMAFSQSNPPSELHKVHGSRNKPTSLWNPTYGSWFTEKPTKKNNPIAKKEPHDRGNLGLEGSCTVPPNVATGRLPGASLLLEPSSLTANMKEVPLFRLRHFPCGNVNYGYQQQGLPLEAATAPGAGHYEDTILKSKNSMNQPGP
IC50 (ALK; ALK Kinase Inhibition) [nM],IC50 (JAK2; JAK2 Kinase Inhibition) [nM],IC50 (ALK; [1]) [nM],IC50 (JAK2; [2]) [nM],Compound
100 to 1000,< 100,,,"COc1ccc(-c2cc(Cl)c3cnc(Nc4ccc(C5CCN(CC(N)=O)CC5)cc4)nn23)cn1 [Example 1555, 2-(4-{4-[5-Chloro-7-(6-methoxy-pyridin-3-yl)-pyrrolo[2,1-f][1,2,4]triazin-2-ylamino]-phenyl}-piperidin-1-yl)-acetamide]"
,,1000 to 10000,< 100,"Cc1cc(-c2ccc3cnc(Nc4ccc(N5CCOCC5)cc4)nn23)cnc1F [Example 1047, [7-(6-Fluoro-5-methyl-pyridin-3-yl)-pyrrolo[2,1-f][1,2,4]triazin-2-yl]-(4-morpholin-4-yl-phenyl)-amine]"
,,1000 to 10000,< 100,"COc1ccc(-c2ccc3cnc(Nc4ccc5ncn(C)c5c4)nn23)cn1 [Example 1307, [7-(6-Methoxy-pyridin-3-yl)-pyrrolo[2,1-f][1,2,4]triazin-2-yl]-(3-methyl-3H-benzimidazol-5-yl)-amine]"
,,< 100,< 100,"CN(c1ccccc1-c1ccc2cnc(Nc3ccc(N4CCN(CCO)CC4)cc3)nn12)S(C)(=O)=O [Example 1175, N-[2-(2-{4-[4-(2-Hydroxy-ethyl)-piperazin-1-yl]-phenylamino}-pyrrolo[2,1-f][1,2,4]triazin-7-yl)-phenyl]-N-methyl-methanesulfonamide]"
,,> 10000,< 100,"CC(C)(C)NS(=O)(=O)c1cccc(-c2ccc3cnc(Nc4ccc(-c5cccnc5)cc4)nn23)c1 [Example 1085, N-tert-Butyl-3-[2-(4-pyridin-3-yl-phenylamino)-pyrrolo[2,1-f][1,2,4]triazin-7-yl]-benzenesulfonamide]"
,,> 10000,< 100,"COc1ccc(-c2ccc3cnc(Nc4ccc(CN5CCS(=O)(=O)CC5)cc4)nn23)cn1 [Example 1051, [4-(1,1-Dioxo-1$1(6)-thiomorpholin-4-ylmethyl)-phenyl]-[7-(6-methoxy-pyridin-3-yl)-pyrrolo[2,1-f][1,2,4]triazin-2-yl]-amine]"
< 100,1000 to 10000,,,"COc1cc2c(cc1Nc1ncc3ccc(-c4ccccc4N(C)S(C)(=O)=O)n3n1)CCC1(CCN(C[C@H](C)O)CC1)O2 [Example 1496, N-{2-[2-({1′-[(25)-2-hydroxypropyl]-7-methoxy-3,4-dihydrospiro[chromene-2,4′-piperidin]-6-yl}amino)pyrrolo[2,1-f][1,2,4]triazin-7-yl]phenyl}-N-methylmethanesulfonamide]"

# Continued, compound first:
Compound,IC50 (ALK; ALK Kinase Inhibition) [nM],IC50 (JAK2; JAK2 Kinase Inhibition) [nM],IC50 (ALK; [1]) [nM],IC50 (JAK2; [2]) [nM]
"COc1cc([C@@]2(O)CCN(CCF)C[C@@H]2O)ccc1Nc1ncc2ccc(-c3ccccc3OC)n2n1 (racemic) [Example 833, (±)-(3S,4S)-1-(2-Fluoro-ethyl)-4-{3-methoxy-4-[7-(2-methoxy-phenyl)-pyrrolo[2,1-f][1,2,4]triazin-2-ylamino]-phenyl}-piperidine-3,4-diol]",,,< 100,< 100
"COc1ccc(Nc2ncc3ccc(-c4cccnc4)n3n2)cc1N1CCOCC1 [Example 396, (4-Methoxy-3-morpholin-4-yl-phenyl)-(7-pyridin-3-yl-pyrrolo[2,1-f][1,2,4]triazin-2-yl)-amine]",100 to 1000,< 100,,
"CC(C)CCn1cc(-c2ccc3cnc(Nc4cccc(N5CCN(C)CC5)c4)nn23)cn1 [Example 971, {7-[1-(3-Methyl-butyl)-1H-pyrazol-4-yl]-pyrrolo[2,1-f][1,2,4]triazin-2-yl}-[3-(4-methyl-piperazin-1-yl)-phenyl]-amine]",,,1000 to 10000,< 100
"COc1ccc(Cl)cc1-c1ccc2cnc(Nc3cccc(N4CCN(C[C@@H](C)O)CC4)c3)nn12 [Example 214, (R)-1-(4-{3-[7-(5-Chloro-2-methoxy-phenyl)-pyrrolo[2,1-f][1,2,4]triazin-2-ylamino]-phenyl}-piperazin-1-yl)-propan-2-ol]",< 100,< 100,,
"Cc1nc2cc(Nc3ncc4ccc(-c5cccc(S(=O)(=O)NC(C)(C)C)c5)n4n3)ccc2o1 [Example 600, N-tert-Butyl-3-[2-(2-methyl-benzoxazol-5-ylamino)-pyrrolo[2,1-f][1,2,4]triazin-7-yl]-benzenesulfonamide]",,,1000 to 10000,< 100
